Experimental data reported in patent US8598344B2, “CDKI pathway inhibitors and uses thereof” (Senex Biotechnology, priority 2009, dated 2013).

Experiments:
CDK7 = CDK7 (Homo sapiens, UniProt P50613); experiment: KinomeScan competition binding assay; set-up: purchased KinomeScan, a division of Ambit Biosciences; details: 10 μM compound
From the text: This similarity led us to test SNX14 for the ability to inhibit 285 kinases, using the services of KinaseProfiler of Millipore Corporation (285 kinases). […] The KINOMEscan assay has been described in detail in Fabian et al., Nat. Biotechnol. 23: 329 (2005) and Karaman et al., Nat. Biotechnol. 26: 127 (2008).
The KinomeScan assay is based on a competition binding assay that quantitatively measures the ability of a compound to compete with an immobilized, ATP site directed ligand. The assay is performed by combining three components: DNA-tagged kinase; immobilized ligand; and a test compound. The ability of the test compound to compete with the immobilized ligand is measured via quantitative PCR of the DNA tag. […] The CDKs tested by Millipore for inhibition with SNX14 included CDK1, CDK2, CDK3, CDK5, CDK7 and CDK9; none of these were inhibited to less than 49 percent of control (POC) activity. The CDKs tested by KinomeScan for the effect of Compound 1 included CDK2, CDK3, CDK4, CDK5, CDK7, CDK8, CDK9 and CDK19; aside from CDK8 and CDK19, the strongest inhibited CDK was CDK7 (33% POC binding). […] We have also determined the binding constant (Kd) for SNX14, compound 1, compound 20, compound 26, compound 43 and compound 14 in kinase assays for CDK8 and CDK19 (Table 1).

[1] = system: irradiated, senescent WI38 fibroblasts; experiment: Paracrine antiapoptotic activity of irradiated, senescent WI38 fibroblasts (survival of C8 cells in low serum); format: cell-based; details: C8 cell luciferase, 0.5% serum
From the text: As discussed by Roninson (Cancer Lett. 179, 1-14, 2002), all the treatments known to induce the production of tumor-promoting secreted factors by cancer-associated stromal fibroblasts activate the CDKI pathway, including exposure to ionizing radiation and the induction of senescence. Since this pathway is the target of compounds according to the invention, such compounds may be the first agents to target tumor-supporting activities of cancer-associated fibroblasts. Some of the fibroblast-activating treatments include exposure to ionizing radiation and the induction of senescence through various means (Krtolica et al., Proc. Natl. Acad. Sci. USA 98, 12072, 2001). We have adopted a 96-well assay for anti-apoptotic activity that we have previously used with p21-expressing fibrosarcoma cells (Chang et al., Proc. Natl. Acad. Sci. USA 97, 4291-4296, 2000), to measure a tumor-promoting activity of normal proliferating fibroblasts and fibroblasts exposed to ionizing radiation and consequently developing the senescent phenotype. In this assay, WI38 fibroblasts are irradiated with 10 Gy using an MDS Nordion Gammacell 40 irradiator, or left unirradiated. […] On day 7, cells are lysed and the amount of luciferase activity associated with C8 cells is determined. […]

HUVECs = experiment: HUVEC proliferation, 3-day MTT assay; format: cell-based, human

CDK7, sequence (P50613 whole entry): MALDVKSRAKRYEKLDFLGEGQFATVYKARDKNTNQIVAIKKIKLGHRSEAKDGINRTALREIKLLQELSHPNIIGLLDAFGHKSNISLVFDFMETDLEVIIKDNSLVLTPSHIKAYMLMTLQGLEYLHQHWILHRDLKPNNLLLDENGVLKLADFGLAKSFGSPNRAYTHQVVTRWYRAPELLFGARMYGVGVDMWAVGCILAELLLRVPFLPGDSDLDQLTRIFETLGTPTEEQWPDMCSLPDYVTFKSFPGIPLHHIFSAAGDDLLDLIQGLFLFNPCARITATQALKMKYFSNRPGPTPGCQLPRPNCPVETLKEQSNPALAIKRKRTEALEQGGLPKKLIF

N#Cc1ccc2ncnc(NCCc3ccccc3)c2c1 [compound 1]
IC50 KB-3-1 relative to IC50 for HUVEC cells (KB-3-1 carcinoma cells): 4.3 fold
IC50 (KB-3-1 carcinoma cells; read-out: IC50, KB-3-1 proliferation, 3-day MTT): 44.2 µM
POC binding, CDK7 (CDK7): 33 % POC
decrease of paracrine tumor-promoting (antiapoptotic) effect of irradiated/senescent fibroblasts [1]: ~3 fold
effect on HUVEC cell number relative to untreated control (HUVECs; 0.625 or 1.25 μM): little or no effect
IC50 (HUVECs; 3-day MTT): 10.4 µM
